Assays:
[1] = system: Escherichia coli, ATCC #26; experiment: MIC, serial twofold broth dilution in Mueller Hinton broth; type: cell-based; settings: Escherichia coli ATCC #26, Mueller Hinton broth
[2] = system: Staphylococcus aureus Smith; experiment: as above; type: cell-based
[3] = cited from earlier work

Row | Substance | E. coli MIC [1] | Staph MIC [2] | renal toxicity ([3]; patients, recommended dosing) | overall incidence of neurotoxicity ([3]; human, in vivo)
1 | Polymyxin B [reference compound] | 0.6 micrograms per milliliter | > 10 µg/mL | Some renal toxicity was observed | –
2 | colistin | – | – | – | 7.3%
